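Compound exposure: 48 hours, 5 concentrations, 96-well plates. Abbreviation: GI50, concentration required for 50% inhibition of growth.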 Active and inactive are the calls of the source. Rule as the data show it: active = GI50 up to about 1.1 µM and inactive = higher.
Assays:
Experiment in all cases: inhibition of tumour cell growth, NCI panel, 48 h
[1] = test system: DU-145
[2] = test system: EKVX
[3] = test system: HCC 2998
[4] = test system: HCT-15
[5] = test system: HL-60
[6] = test system: HOP-62
[7] = test system: K562
[8] = test system: MDA-MB-435
[9] = test system: MDA-N
[10] = test system: Malme-3M
[11] = test system: NCI-H226
[12] = test system: NCI-H23
[13] = test system: RXF 393
[14] = test system: SF-268
[15] = test system: SF-295
[16] = test system: SF-539
[17] = test system: SNB-19
[18] = test system: SW-620
[19] = test system: TK-10
[20] = test system: UACC-62

| SMILES | GI50 [1] | GI50 [2] | GI50 [3] | GI50 [4] [µM] | GI50 [5] | GI50 [6] | GI50 [7] | GI50 [8] | GI50 [9] | GI50 [10] | GI50 [11] | GI50 [12] | GI50 [13] | GI50 [14] | GI50 [15] | GI50 [16] | GI50 [17] | GI50 [18] | GI50 [19] | GI50 [20] |
| --- | --- | --- | --- | --- | --- | --- | --- | --- | --- | --- | --- | --- | --- | --- | --- | --- | --- | --- | --- | --- |
| CCOC(=O)CC[C@H](N)C(=O)N[C@H](Cc1ccc(N(CCCl)CCCl)cc1)C(=O)OCC | 0.348 µM (active) | 6.03 µM (inactive) | 1.2 µM (inactive) | 4.39 | 4.16 µM (inactive) | 2.26 µM (inactive) | > 34.4 µM (inactive) | 24.9 µM (inactive) | 16.1 µM (inactive) | 4.94 µM (inactive) | 7.76 µM (inactive) | 0.857 µM (active) | 0.879 µM (active) | 0.414 µM (active) | 3.21 µM (inactive) | 1.99 µM (inactive) | 16.1 µM (inactive) | 3.56 µM (inactive) | 2.26 µM (inactive) | 1.51 µM (inactive) |
| CC(=O)NC(=O)/N=C1\NCCC(=O)N1CCc1c[nH]c2ccccc12 | > 100 µM (inactive) | > 100 µM (inactive) | > 100 µM (inactive) | > 100 | > 100 µM (inactive) | > 100 µM (inactive) | > 100 µM (inactive) | > 100 µM (inactive) | > 100 µM (inactive) | > 100 µM (inactive) | > 100 µM (inactive) | > 100 µM (inactive) | > 100 µM (inactive) | > 100 µM (inactive) | > 100 µM (inactive) | > 100 µM (inactive) | > 100 µM (inactive) | > 100 µM (inactive) | > 100 µM (inactive) | > 100 µM (inactive) |
| COc1ccc(C2c3cc4c(cc3OC(NNC(N)=O)C2C)OCO4)cc1 (stereo not given) | 22.3 µM (inactive) | 21.5 µM (inactive) | 8.51 µM (inactive) | 3.94 | 2.2 µM (inactive) | 6.28 µM (inactive) | 2.86 µM (inactive) | 2.14 µM (inactive) | 1.87 µM (inactive) | 6.67 µM (inactive) | 14.9 µM (inactive) | 14.6 µM (inactive) | 6.92 µM (inactive) | 11.2 µM (inactive) | 3.58 µM (inactive) | 1.16 µM (inactive) | 13.7 µM (inactive) | 3.56 µM (inactive) | 25.8 µM (inactive) | 5.83 µM (inactive) |
| CC(C)[C@](O)(C(=O)OCC1=CC[N+]2([O-])CC[C@@H](O)[C@@H]12)[C@H](C)O (stereo not given in full) [INDICINE N-OXIDE] | > 10000 µM (inactive) | > 9060 µM (inactive) | > 10000 µM (inactive) | > 10000 | 3230 µM (inactive) | 3590 µM (inactive) | > 10000 µM (inactive) | > 10000 µM (inactive) | > 10000 µM (inactive) | > 9420 µM (inactive) | > 10000 µM (inactive) | > 6000 µM (inactive) | 7460 µM (inactive) | > 9930 µM (inactive) | > 10000 µM (inactive) | > 9080 µM (inactive) | > 10000 µM (inactive) | > 10000 µM (inactive) | > 10000 µM (inactive) | 7210 µM (inactive) |
| CCCCCOC(=O)C(=O)Nc1[nH]nnc1C(N)=O | > 100 µM (inactive) | > 100 µM (inactive) | > 100 µM (inactive) | > 100 | > 100 µM (inactive) | > 100 µM (inactive) | > 100 µM (inactive) | > 100 µM (inactive) | > 100 µM (inactive) | > 100 µM (inactive) | > 100 µM (inactive) | > 100 µM (inactive) | > 100 µM (inactive) | > 100 µM (inactive) | > 100 µM (inactive) | > 100 µM (inactive) | > 100 µM (inactive) | > 100 µM (inactive) | > 100 µM (inactive) | > 100 µM (inactive) |
| C=C1CC2C[C@H](OS(=O)(=O)c3ccc(C)cc3)C(C1)N2C (stereo not given in full) | > 100 µM (inactive) | > 100 µM (inactive) | > 100 µM (inactive) | > 100 | > 100 µM (inactive) | > 100 µM (inactive) | > 100 µM (inactive) | > 100 µM (inactive) | > 100 µM (inactive) | > 100 µM (inactive) | > 100 µM (inactive) | > 100 µM (inactive) | > 100 µM (inactive) | > 100 µM (inactive) | > 100 µM (inactive) | > 100 µM (inactive) | > 100 µM (inactive) | > 100 µM (inactive) | > 100 µM (inactive) | > 100 µM (inactive) |
| CCOC(=O)C(C#N)C1=CC(=O)C(=O)c2ccc(OC)cc21 (stereo not given) | 19.5 µM (inactive) | 22.7 µM (inactive) | 16.2 µM (inactive) | 23.8 | 38.3 µM (inactive) | 22 µM (inactive) | 36.6 µM (inactive) | 17.6 µM (inactive) | 5.83 µM (inactive) | 16.9 µM (inactive) | 21.6 µM (inactive) | 15.5 µM (inactive) | 21.8 µM (inactive) | 30.2 µM (inactive) | 23.3 µM (inactive) | 18.4 µM (inactive) | 22.1 µM (inactive) | 18.4 µM (inactive) | 38.5 µM (inactive) | 15.2 µM (inactive) |
| O=S(=O)(CCCCl)SCCCCl | 63.8 µM (inactive) | > 100 µM (inactive) | > 100 µM (inactive) | 23.3 | 9.91 µM (inactive) | > 87.5 µM (inactive) | 7.5 µM (inactive) | 25.8 µM (inactive) | 27 µM (inactive) | 33.6 µM (inactive) | > 65.5 µM (inactive) | 45.1 µM (inactive) | 30.3 µM (inactive) | 26.7 µM (inactive) | > 64.9 µM (inactive) | 19.4 µM (inactive) | > 95.1 µM (inactive) | 19.1 µM (inactive) | 74.6 µM (inactive) | 36.1 µM (inactive) |
| CC(C)(C)C(=O)CC1=Nc2ccccc2SC1(O)CC(=O)C(C)(C)C (stereo not given) | 25.1 µM (inactive) | 16.2 µM (inactive) | 14.8 µM (inactive) | 15.3 | 30.9 µM (inactive) | 26.3 µM (inactive) | 21.5 µM (inactive) | 22.6 µM (inactive) | 32.7 µM (inactive) | 33.3 µM (inactive) | 15.2 µM (inactive) | 24.1 µM (inactive) | 23.5 µM (inactive) | 25.8 µM (inactive) | 24.8 µM (inactive) | 22.9 µM (inactive) | 35.6 µM (inactive) | 25.5 µM (inactive) | 64 µM (inactive) | 11.8 µM (inactive) |
| CCOC(=O)C1(Cc2ccccc2)C=CN(C(=O)c2ccccc2)C=C1 | 57.3 µM (inactive) | 32.9 µM (inactive) | 63.4 µM (inactive) | 32.1 | 16.6 µM (inactive) | 45.9 µM (inactive) | 27 µM (inactive) | 29.2 µM (inactive) | 24.3 µM (inactive) | 26.6 µM (inactive) | > 100 µM (inactive) | 30.1 µM (inactive) | 27.5 µM (inactive) | 47.4 µM (inactive) | 36 µM (inactive) | 42.9 µM (inactive) | 46.5 µM (inactive) | 32.2 µM (inactive) | 28.4 µM (inactive) | 20.2 µM (inactive) |
